Measured values reported in US20150141381A1, “TETRACYCLINE COMPOUNDS HAVING TARGET THERAPEUTIC ACTIVITIES” (Paratek Pharmaceuticals, Inc., priority 2001, published 2015).
Read-outs that look alike come from different tables or passages of the source.

Legend:
S. aureus RN450 = experiment: In Vitro Anti-Bacterial Activity Assay (MIC), gram positive; format: cell-based; details: Staphylococcus aureus, RN450, 18 h
E. coli mL308 225 = experiment: In Vitro Anti-Bacterial Activity Assay (MIC), gram negative; format: cell-based; details: Escherichia coli, ML308225, 18 h
[1] = MIC class, Table 3, read-out: Antibiotic Activity Gram +
[2] = MIC class, Table 3, read-out: Antibiotic Activity Gram −
[3] = gram positive bacteria, read-out: Antibiotic Activity Gram + (MIC)
[4] = gram negative bacteria, read-out: Antibiotic Activity Gram − (MIC)
[5] = MIC class, Table 3 (Continued), read-out: Gram+ activity
[6] = MIC class, Table 3 (Continued), read-out: Gram− activity

| Structure (SMILES) | MIC (S. aureus RN450; [3]) | MIC (E. coli mL308 225; [4]) | further results |
| --- | --- | --- | --- |
| COc1cccc(CCc2ccc(O)c3c2C[C@H]2C[C@H]4[C@H](N(C)C)C(O)=C(C(N)=O)C(=O)[C@@]4(O)C(O)=C2C3=O)c1 [BK] | – | – | MIC (S. aureus RN450; [1]): < 4 mg/L; MIC (E. coli mL308 225; [2]): > 4 mg/L |
| CCc1cc(CNCCC(F)(F)F)c(O)c2c1C[C@H]1C[C@H]3[C@H](N(C)C)C(O)=C(C(N)=O)C(=O)[C@@]3(O)C(O)=C1C2=O | < 4 mg/L | < 4 mg/L | – |
| CN(C)[C@@H]1C(O)=C(C(N)=O)C(=O)[C@@]2(O)C(O)=C3C(=O)c4c(O)ccc(-c5ccncc5)c4C[C@H]3C[C@@H]12 | < 4 mg/L | < 4 mg/L | – |
| CO/N=C(\C)c1ccc(O)c2c1C[C@H]1C[C@H]3[C@H](N(C)C)C(O)=C(C(N)=O)C(=O)[C@@]3(O)C(O)=C1C2=O [EU] | – | – | MIC (S. aureus RN450; [1]): < 4 mg/L; MIC (E. coli mL308 225; [2]): < 4 mg/L |
| CN(C)c1cc(CN2CCC(F)CC2)c(O)c2c1C[C@H]1C[C@H]3[C@H](N(C)C)C(O)=C(C(N)=O)C(=O)[C@@]3(O)C(O)=C1C2=O | < 4 mg/L | < 4 mg/L | – |
| COCc1ccc(O)c2c1C[C@H]1C[C@H]3[C@H](N(C)C)C(O)=C(C(N)=O)C(=O)[C@@]3(O)C(O)=C1C2=O | < 4 mg/L | < 4 mg/L | – |
| CN(C)C(=O)c1ccc(O)c2c1C[C@H]1C[C@H]3[C@H](N(C)C)C(O)=C(C(N)=O)C(=O)[C@@]3(O)C(O)=C1C2=O | < 4 mg/L | > 4 mg/L | – |
| CN(C)[C@@H]1C(O)=C(C(N)=O)C(=O)[C@@]2(O)C(O)=C3C(=O)c4c(O)ccc(-c5ccco5)c4C[C@H]3C[C@@H]12 | – | – | MIC (S. aureus RN450; [5]): < 4 mg/L; MIC (E. coli mL308 225; [6]): < 4 mg/L |
| C[C@H]1c2cccc(O)c2C(=O)C2=C(O)[C@]3(O)C(=O)C(C(N)=O)=C(O)[C@@H](N(C)C)[C@@H]3[C@@H](OC(=O)C34CC5CC(CC(C5)C3)C4)[C@@H]21 [T] | – | – | MIC (S. aureus RN450; [1]): < 4 mg/L; MIC (E. coli mL308 225; [2]): > 4 mg/L |
| Cc1ccnc(-c2ccc(O)c3c2C[C@H]2C[C@H]4[C@H](N(C)C)C(O)=C(C(N)=O)C(=O)[C@@]4(O)C(O)=C2C3=O)c1 | < 4 mg/L | < 4 mg/L | – |
| CO/N=C/c1ccc(OC)c(-c2ccc(O)c3c2C[C@H]2C[C@H]4[C@H](N(C)C)C(O)=C(C(N)=O)C(=O)[C@@]4(O)C(O)=C2C3=O)c1 | < 4 mg/L | < 4 mg/L | – |
| CN(C)c1cc(NC(=O)Oc2ccc(O)cc2)c(O)c2c1C[C@H]1C[C@H]3[C@H](N(C)C)C(O)=C(C(N)=O)C(=O)[C@@]3(O)C(O)=C1C2=O | – | – | MIC (S. aureus RN450; read-out: Antibiotic Activity Gram + (MIC)): > 4 mg/L; MIC (E. coli mL308 225; read-out: Antibiotic Activity Gram − (MIC)): > 4 mg/L |
| CC(=O)c1cc(N(C)C)c2c(c1O)C(=O)C1=C(O)[C@]3(O)C(=O)C(C(N)=O)=C(O)[C@@H](N(C)C)[C@@H]3C[C@@H]1C2 [MQ] | – | – | MIC (S. aureus RN450; [1]): > 4 mg/L; MIC (E. coli mL308 225; [2]): > 4 mg/L |
| CN(C)c1cc(C#CC2=CCCC2)c(O)c2c1C[C@H]1C[C@H]3[C@H](N(C)C)C(O)=C(C(N)=O)C(=O)[C@@]3(O)C(O)=C1C2=O | < 4 mg/L | < 4 mg/L | – |
| CN(C)[C@@H]1C(O)=C(C(N)=O)C(=O)[C@@]2(O)C(O)=C3C(=O)c4c(O)ccc(-c5ccc(O)nc5)c4C[C@H]3C[C@@H]12 | < 4 mg/L | < 4 mg/L | – |
| CONC(=O)c1cccc(-c2ccc(O)c3c2C[C@H]2C[C@H]4[C@H](N(C)C)C(O)=C(C(N)=O)C(=O)[C@@]4(O)C(O)=C2C3=O)c1 | < 4 mg/L | > 4 mg/L | – |
| CCC1(C)CCN(Cc2cc(N(C)C)c3c(c2O)C(=O)C2=C(O)[C@]4(O)C(=O)C(C(N)=O)=C(O)[C@@H](N(C)C)[C@@H]4C[C@@H]2C3)CC1 | < 4 mg/L | < 4 mg/L | – |
| CC(CCO)NCc1cc(N(C)C)c2c(c1O)C(=O)C1=C(O)[C@]3(O)C(=O)C(C(N)=O)=C(O)[C@@H](N(C)C)[C@@H]3C[C@@H]1C2 (stereo partly shown) | < 4 mg/L | > 4 mg/L | – |
| CN(C)[C@@H]1C(O)=C(C(N)=O)C(=O)[C@@]2(O)C(O)=C3C(=O)c4c(O)ccc(-c5ccccc5)c4C[C@H]3C[C@@H]12 | < 4 mg/L | < 4 mg/L | – |
| CCC(=O)O[C@@H]1[C@H]2[C@H](N(C)C)C(O)=C(C(N)=O)C(=O)[C@@]2(O)C(O)=C2C(=O)c3c(O)cccc3C(C)[C@H]21 (stereo partly shown) | – | – | MIC (S. aureus RN450; [5]): > 4 mg/L; MIC (E. coli mL308 225; [6]): > 4 mg/L |
| CN(C)c1cc(-c2ccc(Cl)cc2)c(O)c2c1C[C@H]1C[C@H]3[C@H](N(C)C)C(O)=C(C(N)=O)C(=O)[C@@]3(O)C(O)=C1C2=O [AF] | – | – | MIC (S. aureus RN450; [1]): < 4 mg/L; MIC (E. coli mL308 225; [2]): > 4 mg/L |
| C[C@H]1c2ccc(N(C)C3CCN(C)CC3)c(O)c2C(=O)C2=C(O)[C@]3(O)C(=O)C(C(N)=O)=C(O)[C@@H](N(C)C)[C@@H]3[C@@H](O)[C@@H]21 | > 4 mg/L | > 4 mg/L | – |
| CC1c2cccc(O)c2C(=O)C2=C(O)[C@]3(O)C(=O)C(C(N)=O)=C(O)[C@@H](N(C)C)[C@@H]3[C@@H](O)[C@@H]21 (stereo partly shown) | – | – | MIC (S. aureus RN450; [5]): < 4 mg/L; MIC (E. coli mL308 225; [6]): > 4 mg/L |
